This passage reports IC50 results from US10414775B2 (Merck Sharp & Dohme Corp., priority 2016, dated 2019).

This data set deals with T1, Human CYP8B1 (Homo sapiens, UniProt Q9UNU6).
T1 construct: tissue Xenotech; host or cells: human liver microsomes
T1 sequence (Q9UNU6 1-501): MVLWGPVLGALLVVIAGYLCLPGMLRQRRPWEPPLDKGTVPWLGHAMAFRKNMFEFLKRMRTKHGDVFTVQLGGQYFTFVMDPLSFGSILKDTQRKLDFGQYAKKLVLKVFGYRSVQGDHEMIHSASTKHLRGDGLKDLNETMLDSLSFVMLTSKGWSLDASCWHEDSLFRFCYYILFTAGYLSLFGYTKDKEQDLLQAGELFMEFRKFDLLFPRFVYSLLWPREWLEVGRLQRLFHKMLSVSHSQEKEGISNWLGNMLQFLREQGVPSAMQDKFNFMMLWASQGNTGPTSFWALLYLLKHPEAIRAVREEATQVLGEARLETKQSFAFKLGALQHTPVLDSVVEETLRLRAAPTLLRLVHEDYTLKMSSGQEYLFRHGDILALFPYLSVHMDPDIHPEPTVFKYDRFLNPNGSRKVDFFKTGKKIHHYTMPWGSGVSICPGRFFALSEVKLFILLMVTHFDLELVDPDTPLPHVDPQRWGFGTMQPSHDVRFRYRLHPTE
The experiment in a line: Human Cyp8B1 Liver Microsome Assay. The format is biochemical. The settings on record: human liver microsomes; substrate 7α-hydroxy-4-cholesten-3-one, NADPH; 30 min pre-incubation, 45 min reaction; RapidFire MS readout. The essentials: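 Human liver microsomes (65 μg/ml, 0.1 M phosphate pH 7.4) preincubated 30 min at room temperature with inhibitor (1.25% DMSO final), then reacted 45 min with 7α-hydroxy-4-cholesten-3-one and NADPH. 7α,12α-dihydroxy product quantified by RapidFire ESI+ MRM against d7 internal standard; IC50 from four-parameter logistic fit.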
(Liver microsomes are a subcellular fraction often used to study metabolism.)

As usually defined, the IC50 is the midpoint of a concentration-inhibition curve. Read a low IC50 as greater potency. Compound `C[C@@H]1CN(c2ccnc3c2CCN(C(=O)OC(C)(C)C)C3)CC[C@@H]1C(=O)N1CCn2c(nnc2C(F)(F)F)C1` [Example 59, tert-butyl 4-((3S,4S)-3-methyl-4-(3-(trifluoromethyl)-5,6,7,8-tetrahydro-[1,2,4]triazolo[4,3-a]pyrazine-7-carbonyl)piperidin-1-yl)-5,6-dihydro-1,7-naphthyridine-7(8H)-carboxylate] returned an IC50 of 8.2 nM.
For `C[C@@H]1CN(c2c(Cl)cnc3c2CCN(CC(F)(F)F)C3)CC[C@@H]1C(=O)N1CCn2c(nnc2C(F)(F)F)C1` [Example 60, ((3S,4S)-1-(3-chloro-7-(2,2,2-trifluoroethyl)-5,6,7,8-tetrahydro-1,7-naphthyridin-4-yl)-3-methylpiperidin-4-yl)(3-(trifluoromethyl)-5,6-dihydro-[1,2,4]triazolo[4,3-a]pyrazin-7(8H)-yl)methanone] the value was 0.8 nM.
For `C[C@@H]1CN(c2c(Cl)cnc3c2CCN(CC2CC2)C3)CC[C@@H]1C(=O)N1CCn2c(nnc2C(F)(F)F)C1` [Example 61, ((3S,4S)-1-(3-chloro-7-(cyclopropylmethyl)-5,6,7,8-tetrahydro-1,7-naphthyridin-4-yl)-3-methylpiperidin-4-yl)(3-(trifluoromethyl)-5,6-dihydro-[1,2,4]triazolo[4,3-a]pyrazin-7(8H)-yl)methanone] the value was 1 nM.
In turn, `C[C@@H]1CN(c2c(Cl)cnc3c2CCN(c2ccccn2)C3)CC[C@@H]1C(=O)N1CCn2c(nnc2C(F)(F)F)C1` [Example 62, ((3S,4S)-1-(3-chloro-7-(pyridin-2-yl)-5,6,7,8-tetrahydro-1,7-naphthyridin-4-yl)-3-methylpiperidin-4-yl)(3-(trifluoromethyl)-5,6-dihydro-[1,2,4]triazolo[4,3-a]pyrazin-7(8H)-yl)methanone] came in with a 50% inhibitory concentration (IC50) of 0.4 nM.
Under `C[C@@H]1CN(c2ccnc3c2CCN(CC(F)(F)F)C3)CC[C@@H]1C(=O)N1CCn2c(nnc2C(F)(F)F)C1` [Example 63, ((3S,4S)-3-methyl-1-(7-(2,2,2-trifluoroethyl)-5,6,7,8-tetrahydro-1,7-naphthyridin-4-yl)piperidin-4-yl)(3-(trifluoromethyl)-5,6-dihydro-[1,2,4]triazolo[4,3-a]pyrazin-7(8H)-yl)methanone] stands 120 nM; under `C[C@@H]1CN(c2ccnc3c2CCN(C(=O)OC2(C)CC2)C3)CC[C@@H]1C(=O)N1CCn2c(nnc2C(F)(F)F)C1` [Example 64, 1-methylcyclopropyl 4-((3 S,4S)-3-methyl-4-(3-(trifluoromethyl)-5,6,7,8-tetrahydro-[1,2,4]triazolo[4,3-a]pyrazine-7-carbonyl)piperidin-1-yl)-5,6-dihydro-1,7-naphthyridine-7(8H)-carboxylate], 49 nM.
For `C[C@@H]1CN(c2c(Cl)cnc3c2CCN(C(=O)C2CC2)C3)CC[C@@H]1C(=O)N1CCn2c(nnc2C(F)(F)F)C1` [Example 65, (3-chloro-4-((3S,4S)-3-methyl-4-(3-(trifluoromethyl)-5,6,7,8-tetrahydro-[1,2,4]triazolo[4,3-a]pyrazine-7-carbonyl)piperidin-1-yl)-5,6-dihydro-1,7-naphthyridin-7(8H)-yl)(cyclopropyl)methanone] the value was 1.75 nM; for `CC(C)NC(=O)c1ccc2c(N3CC[C@H](C(=O)N4CCn5c(nnc5C(F)(F)F)C4)[C@H](C)C3)ccnc2c1` [Example 66, N-isopropyl-4-((3 S,4S)-3-methyl-4-(3-(trifluoromethyl)-5,6,7,8-tetrahydro-[1,2,4]triazolo[4,3-a]pyrazine-7-carbonyl)piperidin-1-yl)quinoline-7-carboxamide], 4.5 nM.
For `C[C@@H]1CN(c2ccnc3cc(C(=O)NCC4CC4)ccc23)CC[C@@H]1C(=O)N1CCn2c(nnc2C(F)(F)F)C1` [Example 67, N-(cyclopropylmethyl)-4-((3 S,4S)-3-methyl-4-(3-(trifluoromethyl)-5,6,7,8-tetrahydro-[1,2,4]triazolo[4,3-a]pyrazine-7-carbonyl)piperidin-1-yl)quinoline-7-carboxamide] the value was 23.6 nM.
For the compound `C[C@@H]1CN(c2ccnc3cc(C(=O)NC45CC(C4)C5)ccc23)CC[C@@H]1C(=O)N1CCn2c(nnc2C(F)(F)F)C1` [Example 68, N-(bicyclo[1.1.1]pentan-1-yl)-4-((3S,4S)-3-methyl-4-(3-(trifluoromethyl)-5,6,7,8-tetrahydro-[1,2,4]triazolo [4,3-a]pyrazine-7-carbonyl)piperidin-1-yl) quinoline-7-carboxamide], the IC50 was 21.1 nM.
For `CCNC(=O)c1ccc2c(N3CC[C@H](C(=O)N4CCn5c(nnc5C(F)(F)F)C4)[C@H](C)C3)ccnc2c1` [Example 69, N-ethyl-4-((3S,4S)-3-methyl-4-(3-(trifluoromethyl)-5,6,7,8-tetrahydro-[1,2,4]triazolo [4,3-a]pyrazine-7-carbonyl)piperidin-1-yl) quinoline-7-carboxamide] the value was 368 nM; for `CCNC(=O)c1ccc2c(N3CC[C@H](C(=O)N4CCn5c(nnc5C(F)(F)F)C4)[C@H](C)C3)c(Cl)cnc2c1` [Example 70, 3-chloro-N-ethyl-4-((3 S,4S)-3-methyl-4-(3-(trifluoromethyl)-5,6,7,8-tetrahydro-[1,2,4]triazolo[4,3-a]pyrazine-7-carbonyl)piperidin-1-yl)quinoline-7-carboxamide], 0.7 nM.
For `C[C@@H]1CN(c2ccnc3cc(S(C)(=O)=O)ccc23)CC[C@@H]1C(=O)N1CCn2c(nnc2C(F)(F)F)C1` [Example 71, ((3 S,4S)-3-methyl-1-(7-(methylsulfonyl)quinolin-4-yl)piperidin-4-yl)(3-(trifluoromethyl)-5,6-dihydro-[1,2,4]triazolo[4,3-a]pyrazin-7(8H)-yl)methanone] the value was 305 nM.
In turn, `C[C@@H]1CN(c2c(Cl)cnc3cc(S(C)(=O)=O)ccc23)CC[C@@H]1C(=O)N1CCn2c(nnc2C(F)(F)F)C1` [Example 72, ((3S,4S)-1-(3-chloro-7-(methylsulfonyl)quinolin-4-yl)-3-methylpiperidin-4-yl)(3-(trifluoromethyl)-5,6-dihydro-[1,2,4]triazolo[4,3-a]pyrazin-7(8H)-yl)methanone] returned an IC50 of 1.2 nM.
In turn, `C[C@@H]1CN(c2ccnc3cc(-c4ncco4)ccc23)CC[C@@H]1C(=O)N1CCn2c(nnc2C(F)(F)F)C1` [Example 73, ((3S,4S)-3-methyl-1-(7-(oxazol-2-yl)quinolin-4-yl)piperidin-4-yl)(3-(trifluoromethyl)-5,6-dihydro-[1,2,4]triazolo[4,3-a]pyrazin-7(8H)-yl)methanone] came in with an IC50 of 0.4 nM.
For `C[C@@H]1CN(c2ccnc3cc(-n4cncn4)ccc23)CC[C@@H]1C(=O)N1CCn2c(nnc2C(F)(F)F)C1` [Example 74, ((3S,4S)-1-(7-(1H-1,2,4-triazol-1-yl)quinolin-4-yl)-3-methylpiperidin-4-yl)(3-(trifluoromethyl)-5,6-dihydro-[1,2,4]triazolo[4,3-a]pyrazin-7(8H)-yl)methanone] the value was 41.7 nM; for `Cc1coc(-c2ccc3c(N4CC[C@H](C(=O)N5CCn6c(nnc6C(F)(F)F)C5)[C@H](C)C4)ccnc3c2)n1` [Example 75, ((3S,4S)-3-methyl-1-(7-(4-methyloxazol-2-yl)quinolin-4-yl)piperidin-4-yl)(3-(trifluoromethyl)-5,6-dihydro-[1,2,4]triazolo[4,3-a]pyrazin-7(8H)-yl)methanone], 1.4 nM; for `C[C@@H]1CN(c2c(Cl)cnc3cc(-c4ncco4)ccc23)CC[C@@H]1C(=O)N1CCn2c(nnc2C(F)(F)F)C1` [Example 76, ((3S,4S)-1-(3-chloro-7-(oxazol-2-yl)quinolin-4-yl)-3-methylpiperidin-4-yl)(3-(trifluoromethyl)-5,6-dihydro-[1,2,4]triazolo[4,3-a]pyrazin-7(8H)-yl)methanone], 0.7 nM.
`C[C@@H]1CN(c2c(Cl)cnc3cc(-c4ncco4)ccc23)CC[C@@H]1C(=O)N1CCc2c(noc2C(F)(F)F)C1` [Example 77, ((3S,4S)-1-(3-chloro-7-(oxazol-2-yl)quinolin-4-yl)-3-methylpiperidin-4-yl)(3-(trifluoromethyl)-4,5-dihydroisoxazolo [3,4-c]pyridin-6(7H)-yl)methanone] came in with a half-inhibitory concentration (IC50) of 0.2 nM.
Under `C[C@@H]1CN(c2c(Cl)cnc3cc(-c4ncco4)ccc23)CC[C@@H]1C(=O)N1CCn2c(nnc2C2CC2)C1` [Example 78, ((3S,4S)-1-(3-chloro-7-(oxazol-2-yl)quinolin-4-yl)-3-methylpiperidin-4-yl) (3-cyclopropyl-5,6-dihydro-[1,2,4]triazolo[4,3-a]pyrazin-7(8H)-yl)methanone] stands 0.5 nM; under `C[C@@H]1CN(c2ccnc3cc(-c4ccncc4)ccc23)CC[C@@H]1C(=O)N1CCn2c(nnc2C(F)(F)F)C1` [Example 79, ((3S,4S)-3-methyl-1-(7-(pyridin-4-yl)quinolin-4-yl)piperidin-4-yl)(3-(trifluoromethyl)-5,6-dihydro-[1,2,4]triazolo[4,3-a]pyrazin-7(8H)-yl)methanone], 0.7 nM.
In turn, `C[C@@H]1CN(c2ccnc3cc(-c4ccccc4)ccc23)CC[C@@H]1C(=O)N1CCn2c(nnc2C(F)(F)F)C1` [Example 80] gave a half-maximal inhibitory concentration (IC50) of 0.4 nM.
